The record followed here is patent publication US20240417405A1, “Substituted Spiro Derivatives” (Janssen Pharmaceutica NV, priority 2021, published 2024).

Bounds are passed on as bounds.

Assay [1] addresses T1, menin/MLL (terbium chelate-labeled menin, FITC-MBM1 peptide) (Homo sapiens, UniProt O00255, T541A).
T1 construct: Menin (a.a 1-610-6xhis tag)
T1 sequence (O00255 with tags, fused parts or gaps T541A): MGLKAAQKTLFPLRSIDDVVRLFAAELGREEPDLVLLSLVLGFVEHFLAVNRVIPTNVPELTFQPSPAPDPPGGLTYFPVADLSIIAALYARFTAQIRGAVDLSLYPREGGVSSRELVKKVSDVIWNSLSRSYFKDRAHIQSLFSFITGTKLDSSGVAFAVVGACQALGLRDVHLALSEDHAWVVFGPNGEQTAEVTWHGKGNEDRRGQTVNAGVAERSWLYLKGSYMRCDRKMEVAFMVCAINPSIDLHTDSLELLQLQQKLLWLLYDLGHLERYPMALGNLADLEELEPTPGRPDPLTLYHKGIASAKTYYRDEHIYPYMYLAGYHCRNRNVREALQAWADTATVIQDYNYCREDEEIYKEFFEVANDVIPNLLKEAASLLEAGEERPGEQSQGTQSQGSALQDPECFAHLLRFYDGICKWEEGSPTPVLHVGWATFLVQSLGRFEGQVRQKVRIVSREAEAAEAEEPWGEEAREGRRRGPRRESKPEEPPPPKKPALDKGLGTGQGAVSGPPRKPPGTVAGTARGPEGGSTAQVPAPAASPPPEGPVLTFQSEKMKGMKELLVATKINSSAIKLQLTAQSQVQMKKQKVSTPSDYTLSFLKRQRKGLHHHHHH
The experiment in a line: Menin/MLL homogenous time-resolved fluorescence (HTRF) assay. Format: binding. The note with it: 30 min incubation. The procedure, abridged:
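Terbium-labeled menin (aa 1-610, His-tagged; 200 pM) preincubated 30 min with compound, then 75 nM FITC-MBM1 peptide added for 15 min at ambient temperature in pH 7.5 Tris buffer, 0.5% DMSO. HTRF ratio 520/490 nm converted to % inhibition. IC50 came from an 11-point four-fold titration from 10 μM, floor 0.1 nM.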

The test system of another assay is MOLM14 cells. The experiment in a line: Proliferation assay, spheroid-like growth, MOLM14 (MLL-AF9 rearranged). In kind it is cell-based, human. To be noted: Homo sapiens, MOLM-14, 192 h, 8 days, confluence as measure of spheroid size, read-out: spheroid assay_OneTime MOLM14 IC50. The procedure, abridged: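 Cells seeded in ultra-low attachment round-bottom wells (200 MOLM14 or 300 KO-52 per well) with compound at several concentrations, DMSO 0.3%, grown 8 days at 37° C, 5% CO2. Spheroid size taken as confluence from day-8 live-cell images; IC50 from variable-slope fit, DMSO as 0% and high-dose reference compound as 100% effect.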

Consider `CNC(=O)c1sc(N[C@H]2C[C@@H]([C@@H](C(C)C)N3CC4(CCN(c5ncnnc5Oc5ccc(F)cc5-c5cncnc5C5CC5)C4)C3)C2)nc1C` (single isomer, unassigned) [Compound 443], for which the IC50 (commonly the point on the concentration scale where inhibition reaches its midpoint) came out at 0.08 nM in assay [1] and 4 nM with MOLM14 cells.

Consider `Cc1nnc(-c2cnc(N[C@H]3C[C@@H]([C@@H](C(C)C)N4CC5(CCN(c6ncnnc6Oc6ccc(F)cc6-c6cncnc6C6CC6)C5)C4)C3)s2)o1` (single isomer, unassigned) [Compound 445], for which the IC50 in assay [1] was 0.19 nM; in the assay on MOLM14 cells, 6 nM.

For the compound `CC(C)[C@H]([C@H]1C[C@@H](Nc2ncc(C(N)=O)s2)C1)N1CC2(CCN(c3ncnnc3Oc3ccc(F)cc3-c3cncnc3C3CC3)C2)C1` (single isomer, unassigned) [Compound 446], the values for the IC50 (in assay [1]; with MOLM14 cells) were roughly 0.1 nM and 7 nM, respectively.

With `CC(C)[C@H]([C@H]1C[C@@H](Nc2nnc(N)s2)C1)N1CC2(CCN(c3ncnnc3Oc3ccc(F)cc3-c3cncnc3C3CC3)C2)C1` (single isomer, unassigned) [Compound 447], the IC50 in assay [1] was found to be 0.15 nM; in the assay with MOLM14 cells it was 4 nM.

As for `CC(C)[C@H]([C@H]1C[C@@H](Nc2n[nH]c3ncccc23)C1)N1CC2(CCN(c3ncnnc3Oc3ccc(F)cc3-c3cncnc3C3CC3)C2)C1` (single isomer, unassigned) [Compound 448], the values for the IC50 (in assay [1]; with MOLM14 cells) were 0.18 nM and 4.6 nM, respectively.

For the compound `CNC(=O)c1ncc(N[C@H]2C[C@@H]([C@@H](C(C)C)N3CC4(CCN(c5ncnnc5Oc5ccc(F)cc5-c5cncnc5C5CC5)C4)C3)C2)s1` (single isomer, unassigned) [Compound 449], the values for the IC50 (in assay [1]; in the assay with MOLM14 cells) were 0.09 nM and 8.4 nM, respectively.

For the compound `CNC(=O)c1cccc(N[C@H]2C[C@@H](C(C(C)C)N3CC4(CCN(c5ncnnc5Oc5ccc(F)cc5-c5cncnc5C5CC5)C4)C3)C2)n1` (single isomer, unassigned) [Compound 450], the IC50 in assay [1] worked out at 0.08 nM; in the assay on MOLM14 cells it was 7 nM.

`CNC(=O)c1cc(N[C@H]2C[C@@H]([C@@H](C(C)C)N3CC4(CCN(c5ncnnc5Oc5ccc(F)cc5-c5cncnc5C5CC5)C4)C3)C2)ccn1` (single isomer, unassigned) [Compound 451]: the results for the 50% inhibitory concentration (IC50) (in assay [1]; in the assay on MOLM14 cells) were 0.15 nM and 11 nM, respectively.

As to `CNC(=O)c1ccnc(N[C@H]2C[C@@H]([C@@H](C(C)C)N3CC4(CCN(c5ncnnc5Oc5ccc(F)cc5-c5cncnc5C5CC5)C4)C3)C2)n1` (single isomer, unassigned) [Compound 452], the values for the IC50 (in assay [1]; in the assay with MOLM14 cells) were 0.11 nM and 20 nM, respectively.

As for `CNC(=O)c1csc(N[C@H]2C[C@@H]([C@@H](C(C)C)N3CC4(CCN(c5ncnnc5Oc5ccc(F)cc5-c5cncnc5C5CC5)C4)C3)C2)n1` (single isomer, unassigned) [Compound 453], the values for the IC50 (in assay [1]; with MOLM14 cells) were 0.05 nM and 6 nM, respectively.

Turning to `CC(=O)Nc1nnc(N[C@H]2C[C@@H]([C@@H](C(C)C)N3CC4(CCN(c5ncnnc5Oc5ccc(F)cc5-c5cncnc5C5CC5)C4)C3)C2)s1` (single isomer, unassigned) [Compound 454], the values for the IC50 (in assay [1]; in the assay on MOLM14 cells) were 0.17 nM and 13 nM, respectively.

Regarding `CNC(=O)c1cnc(N[C@H]2C[C@@H]([C@H](C)N3CC4(CCN(c5ncnnc5Oc5ccc(F)cc5-c5cncnc5C5CC5)C4)C3)C2)s1` (single isomer, unassigned) [Compound 455], the IC50 came to 0.14 nM in assay [1] and 24 nM in the assay with MOLM14 cells.

With `CC(C)C([C@H]1C[C@@H](Nc2n[nH]c3ncncc23)C1)N1CC2(CCN(c3ncnnc3Oc3ccc(F)cc3-c3cncnc3C3CC3)C2)C1` (single isomer, unassigned) [Compound 458], the values for the IC50 (in assay [1]; in the assay on MOLM14 cells) were 0.16 nM and 27 nM, respectively.

In the case of `CNC(=O)c1oc(N[C@H]2C[C@@H](C(C(C)C)N3CC4(CCN(c5ncnnc5Oc5ccc(F)cc5-c5cncnc5C5CC5)C4)C3)C2)nc1C` (single isomer, unassigned) [Compound 460], the IC50 in assay [1] was determined as 0.07 nM; in the assay on MOLM14 cells it was 11 nM.

Take `CNC(=O)c1coc(N[C@H]2C[C@@H](C(C)N3CC4(CCN(c5ncnnc5Oc5ccc(F)cc5-c5cncnc5C5CC5)C4)C3)C2)n1` (single isomer, unassigned) [Compound 461]: the IC50 in assay [1] came to 0.2 nM; with MOLM14 cells it was 63 nM.

As to `CC(C)[C@H]([C@H]1C[C@@H](Nc2ccc3[nH]c(=O)[nH]c3c2)C1)N1CC2(CCN(c3ncnnc3Oc3ccc(F)cc3-c3cncnc3C3CC3)C2)C1` (single isomer, unassigned) [Compound 462], the half-inhibitory concentration (IC50) is 0.27 nM in assay [1] and 89 nM in the assay on MOLM14 cells.

Take `CC(C)[C@H]([C@H]1C[C@@H](Nc2ccnc(N)n2)C1)N1CC2(CCN(c3ncnnc3Oc3ccc(F)cc3-c3cncnc3C3CC3)C2)C1` (single isomer, unassigned) [Compound 463]: the results for the IC50 (in assay [1]; with MOLM14 cells) were 0.082 nM and 29 nM, respectively.

Consider `CCOC(=O)c1coc(N[C@H]2C[C@@H]([C@@H](C(C)C)N3CC4(CCN(c5ncnnc5Oc5ccc(F)cc5-c5cncnc5C5CC5)C4)C3)C2)n1` (single isomer, unassigned) [Compound 480], for which the IC50 in assay [1] was 0.15 nM; with MOLM14 cells, 6 nM.

Regarding `CCOC(=O)c1nnc(N[C@H]2C[C@@H](C(C(C)C)N3CC4(CCN(c5ncnnc5Oc5ccc(F)cc5-c5cncnc5C5CC5)C4)C3)C2)o1` (single isomer, unassigned) [Compound 481], the values for the half-maximal inhibitory concentration (IC50) (in assay [1]; with MOLM14 cells) were 0.14 nM and greater than 940 nM, respectively.

With `CCOC(=O)c1nnc(N[C@H]2C[C@@H](C(C(C)C)N3CC4(CCN(c5ncnnc5Oc5ccc(F)cc5-c5cncnc5C5CC5)C4)C3)C2)s1` (single isomer, unassigned) [Compound 482], the IC50 in assay [1] turned out to be 0.18 nM; in the assay on MOLM14 cells, 15 nM.

Consider `CCOC(=O)c1sc(N[C@H]2C[C@@H](C(C(C)C)N3CC4(CCN(c5ncnnc5Oc5ccc(F)cc5-c5cncnc5C5CC5)C4)C3)C2)nc1C` (single isomer, unassigned) [Compound 483], for which the IC50 was determined as 0.07 nM in assay [1] and 17 nM with MOLM14 cells.

As for `CC(C)C([C@H]1C[C@@H](Nc2nnc(N)s2)C1)N1CC2(CCN(c3ncnnc3Oc3ccc(F)cc3-c3cncnc3C3CC3)C2)C1` (single isomer, unassigned) [Compound 488], the IC50 came out at 0.15 nM in assay [1] and 4 nM in the assay with MOLM14 cells.

As to `CC(C)C([C@H]1C[C@@H](NC(=O)OC(C)(C)C)C1)N1CC2(CCN(c3ncnnc3Oc3ccc(F)cc3-c3cncnc3C3CC3)C2)C1` (single isomer, unassigned) [Compound 491a], the IC50 in assay [1] stood at 0.13 nM; in the assay on MOLM14 cells it was 4.9 nM.

Turning to `CC(C)C([C@H]1C[C@@H](N2CC3(COC3)C2)C1)N1CC2(CCN(c3ncnnc3Oc3ccc(F)cc3-c3ncc(C#N)cc3C3CC3)C2)C1` (stereo partly shown) [Compound 140], the half-maximal inhibitory concentration (IC50) stood at 0.5 nM in assay [1] and 42 nM with MOLM14 cells.

Consider `CC(=O)N1CCN([C@H]2C[C@@H](C(C(C)C)N3CC4(CCN(c5ncnnc5Oc5ccc(F)cc5-c5cnc(C#N)nc5C5CC5)C4)C3)C2)CC1` (stereo partly shown) [Compound 169], for which the values for the IC50 (in assay [1]; in the assay with MOLM14 cells) were 0.5 nM and 51 nM, respectively.

Turning to `CC(=O)N[C@H]1C[C@@H](C(C(C)C)N2CC3(CCN(c4ncnnc4Oc4ccc(F)cc4-c4nnccc4C4CC4)C3)C2)C1` (stereo partly shown) [Compound 183], the figures for the IC50 (in assay [1]; in the assay with MOLM14 cells) were 0.4 nM and 160 nM, respectively.
